≈ marks a conversion by molar mass, not a printed value.
Assays:
[1] = Chemical (pH) stability assay; assay type: physicochemical; settings: 24 h under acidic, neutral, and basic conditions
Experimental: Chemical stability assay: The chemical stability assay was performed in 384 well plate format (volume = […]).
Plates were prefilled with 70 µL of the appropriate buffer (pH 1.2, 7.4, 10) after which the wells were spiked with 5 µL of test compounds (1 mM). Samples were incubated for their timepoint of interest (1 h, 4 h, 24 h) at 37 °C after which the samples were diluted in MeCN (and pH 12.8 buffer for experiment at pH 1.2), mixed with an internal standard and […]
(§1) Aqueous buffer preparation: pH 3: 50 µL of 1N hydrochloric acid was added to 500 mL of deionized water. The solution was titrated with 1N hydrochloric acid to pH 3, and back titrated with 1N sodium hydroxide. pH 7.4: 100 mM sodium phosphate buffer is made by adding 56.4 g of dibasic sodium phosphate and 10.3 g of monobasic sodium phosphate to 4 L of deionized water. 250 µL of 100 mM sodium phosphate buffer was diluted with 250 µL of deionized water. The solution was titrated with 1N hydrochloric acid to pH 7.4, and back titrated with 1N sodium hydroxide. pH 10: Fisher Scientific pH 10 buffer (SB116-500) containing potassium hydroxide, potassium carbonate, and potassium […]
(§2) Time 0 and 1.5 h incubation samples were taken for LC-MS/MS analysis. Apparent permeability (Papp) was calculated using the equation below (1), where Area is the surface area of the cell monolayer (0.0625 cm2), CD(0) is the […]

[2] = Shake flask LogD (SFLogD) assay; assay type: physicochemical; settings: for logD: pH = 7.4, octanol/water shake flask, average of 2 runs unless otherwise stated
Experimental: (§3) Permeability assay (RRCK): Ralph Russ canine kidney cells were used for permeability measurements using a cell monolayer in 96-transwell format. The detailed assay conditions have been reported previously.9 Test compounds were added to the donor wells and a buffer was added to the receiver wells to start the apical to basolateral transport assay.
as §2

Kinetic solubility = assay type: physicochemical; settings: for solubility at 24 h: aqueous pH buffer, aqueous buffer, kinetic from dmso stock, 37 °C, 600 µM start
Experimental: as §1
pH 12.8: 30 mL of 1N NaOH was added to 200 mL of deionized water. The solution was titrated with 1N sodium hydroxide to pH 12.8 and back titrated with 1N hydrochloric acid.
Kinetic solubility: Samples were diluted to 600 µM in the appropriate pH buffer (pH: 3, 7.4, 10) and to 600 µM (assumed 100% solubility) in a DMSO standard. Samples were mixed thoroughly and incubated at 37 °C for 24 h.
Following incubation, pH samples were transferred to a […] PVDF (low binding) and filtered to remove any precipitate. The filtrate was collected and analyzed via MS/MS. The ratio of MS response (DMSO:pH) is taken and multiplied by the initial 600 µM concentration to determine the concentration (solubility) of the samples in pH buffers. […]
as §3, §2

[3] = Permeability assay (RRCK); assay type: in vitro ADME, canine; settings: dog, MDCK, apical to basolateral, average of 2 runs, footnote b = only one replicate
human hepatocytes = assay: Human Hepatocyte (HHEP) stability assay, clearance; assay type: in vitro ADME; settings: human hepatocytes, 0.5 million cells/mL, 1 µM test compound
Experimental: Human Hepatocyte (HHEP) assay: The high throughput HHEP stability assay was performed in a 384-well format (Greiner Bio-One, Monroe, NC). The cryopreserved HHEP were thawed, and re-suspended in Williams E medium (WEM, custom formula number 91-5233EC; Invitrogen, Grand Island, NY) supplemented with HEPES and Na2CO3. The cells were counted using the Trypan Blue exclusion method. A multidrop liquid dispenser (Multidrop DW, Thermo Scientific, Waltham, MA) was used to add the HHEP suspensions to the 384-well plates. The cell plates were covered and transferred to a Cytomat 2 incubator (ThermoFisher) and Biomek i7 (Beckman Coulter, Indianapolis, IN), equipped with three 3position MéCour heat exchangers. Test compounds were diluted on the Biomek i7 with buffer (15 µL) and added to the HHEP (30 µL). The final incubation contained 0.5 million cells/mL and 1 µM test compound in 45 µL total volume containing 0.01% DMSO. The incubation was carried out at 37 °C in the Cytomat 2 incubator (relative humidity ≥ 90%, 5% CO2/95% air). At various time points (2, 4, 11, 45, 75, 120, and 240 min), the plate was pulled out from the incubator by the Biomek i7 robot and put on the MéCour heated exchanger. Samples (3 µL) were transferred to a 384-well plate containing 30 µL acetonitrile with an internal standard (IS) to quench the reaction. Water (60 µL) was added to the quenched plate to dilute the organic solvent content for LC-MS/MS analysis. The plates were centrifuged at 3000 rpm for 10 min at 4 °C, sealed and subsequently analyzed using LC-MS/MS without further transfer of the supernatant.
Propranolol (CYP2D6), midazolam (CYP3A) and triazolam (CYP3A, low clearance), naloxone (UGT2B7), carbazeran (AO), and verapamil (CYP3A, CYP2C8) were used as positive controls. For CYP inhibition study, 1 mM ABT (a pan-cYP inhibitor) was pre-incubated with HHEP for 30 minutes at 37 °C before adding test compounds. Values are n >3 unless […]
as §3, §2

[4] = Experimental pKaH (amine basicity); assay type: physicochemical; settings: for pKa: Table S2; for pKaH: text and Figure 6
Text: The influence of basicity is an ongoing rationale for inclusion of the oxetanes in drug candidates, providing the potential to attenuate off-target effects including hERG channel inhibition. […] As comparison against the benzamide analogue is not possible, we instead looked at the head-to-head comparison between amino-oxetane 4a and benzylamine 18 (Figure ).

logD [2] | Kinetic solubility, in words (Kinetic solubility; pH 3) | Papp at 1.5 h [3] | pKa [4] | Change in SFlogD of the carbonyl-to-oxetane replacement ([2]; pH 7.4, amino-oxetane versus matched benzamide) | Compound | pH stability, in words [1] | solubility at 24 h (Kinetic solubility; pH 3) | solubility at 24 h (Kinetic solubility; pH 7.4) | solubility at 24 h (Kinetic solubility; pH 10) | HHEPG clearance (human hepatocytes) | Kinetic solubility, in words (Kinetic solubility; across acidic, neutral, and basic conditions, compared with benzamide counterpart) | pKaH [4]
3.6 | markedly improved solubility | 25.8 ×10⁻⁶ cm/s |  |  | COc1ccc(C2(NCC34C[C@H]5C[C@@H](C3)C[C@@H](C4)C5)COC2)cc1 [1a, N-(((3R,5R,7R)-Adamantan-1-yl)Methyl)-3-(4-Methoxyphenyl)Oxetan-3-Amine] | reduced stability under neutral and basic conditions | 533 µM (≈ 175 µg/mL) | < 8.9 µM | < 0.3 µM |  |  | 
1.55 |  | 36.7 ×10⁻⁶ cm/s | 3.08 | +0.44 | O=S(=O)(c1ccccc1)c1ccc(C2(N3CCOCC3)COC2)cc1 [10a, 4-(3-(4-(Phenylsulfonyl)Phenyl)Oxetan-3-yl)Morpholine] |  |  |  |  | 4 μL min^−1 million^−1 |  | 
 |  |  | 7.25 |  | COc1ccc(CN2CCOCC2)cc1 [compound 18, 4-(4-Methoxybenzyl)Morpholine] |  |  |  |  |  |  | 7.25

Compound | logD [2] | Kinetic solubility, in words (Kinetic solubility; pH 3) | Papp at 1.5 h [3] | pKa [4] | Change in SFlogD of the carbonyl-to-oxetane replacement ([2]; pH 7.4, amino-oxetane versus matched benzamide) | pH stability, in words [1] | solubility at 24 h (Kinetic solubility; pH 3) | solubility at 24 h (Kinetic solubility; pH 7.4) | solubility at 24 h (Kinetic solubility; pH 10) | HHEPG clearance (human hepatocytes) | Kinetic solubility, in words (Kinetic solubility; across acidic, neutral, and basic conditions, compared with benzamide counterpart) | pKaH [4]
COc1ccc(C2(N3CCOCC3)COC2)cc1 [4a, 4-(3-(4-Methoxyphenyl)Oxetan-3-yl)Morpholine] | 1.17 |  | 39.2 ×10⁻⁶ cm/s | 4.61 |  |  | 486 µM (≈ 121 µg/mL) | 556 µM (≈ 139 µg/mL) | 492 µM (≈ 123 µg/mL) | 4 μL min^−1 million^−1 | solubility comparable to their analogous benzamides | 4.61
